These results are taken from patent US20100311782A1, “SUBSTITUTED PIPERIDINYLPROPANOIC ACID COMPOUNDS AND METHODS OF THEIR USE” (priority 2009, published 2010).

In experiment [1] the target is T1, cloned human κ opioid receptor (Homo sapiens, UniProt P41145).
T1 construct: expressed in transfected cells
In words: Receptor binding, [3H]diprenorphine displacement, kappa opioid receptor. As to conditions: [3H]diprenorphine, cloned human kappa opioid receptor; read-out: KOR Ki.

Experiment [2] addresses T2, cloned human μ opioid receptor (Homo sapiens, UniProt P35372).
T2 construct: expressed in transfected cells
The experiment is described as follows: Receptor binding, [3H]diprenorphine displacement, mu opioid receptor. The note with it: [3H]diprenorphine, cloned human mu opioid receptor; read-out: MOR Ki.

Experiment [3] has as its target T2, cloned human μ opioid receptor. In words: Inhibition of agonist (loperamide)-stimulated [35S]GTPγS binding. It counts as biochemical. The note with it: in vitro studies. On the procedure:
The potencies of the antagonists were assessed by their abilities to inhibit agonist-stimulated [^35S]GTPγS binding to membranes containing the cloned human μ, κ, or δ opioid receptors. The agonist used for the μ opioid receptor was loperamide.
To determine the IC50 value, which was the concentration to give half-maximal inhibition of agonist-stimulated [^35S]GTPγS binding, the amount of [^35S]GTPγS bound in the presence of a fixed concentration of agonist and various concentrations of antagonist was measured. The fixed concentration of agonist was the EC80 for the agonist, which was the concentration to give 80% of the relative maximum stimulation of [^35S]GTPγS binding. The IC50 value was determined from a best nonlinear regression fit of the data to the following equation,
where Y is the amount of [^35S]GTPγS bound at each concentration of antagonist, Bottom is the calculated amount of [^35S]GTPγS bound in the presence of an infinite concentration of antagonist, Top is the calculated amount of [^35S]GTPγS bound in the absence of added antagonist, X is the logarithm of the concentration of antagonist, and LogIC50 is the logarithm of the concentration of antagonist where the amount of [^35S]GTPγS bound is halfway between Bottom and Top. The nonlinear regression fit was performed using GraphPad Prism® version 3.00 for Windows (GraphPad Software, San Diego, Calif.).
A general note: GTPγS resists hydrolysis and so accumulates on activated G proteins.

In experiment [4] the target is T3, cloned human δ opioid receptor (Homo sapiens, UniProt P41143).
T3 construct: expressed in transfected cells
T3 sequence (P41143 whole entry): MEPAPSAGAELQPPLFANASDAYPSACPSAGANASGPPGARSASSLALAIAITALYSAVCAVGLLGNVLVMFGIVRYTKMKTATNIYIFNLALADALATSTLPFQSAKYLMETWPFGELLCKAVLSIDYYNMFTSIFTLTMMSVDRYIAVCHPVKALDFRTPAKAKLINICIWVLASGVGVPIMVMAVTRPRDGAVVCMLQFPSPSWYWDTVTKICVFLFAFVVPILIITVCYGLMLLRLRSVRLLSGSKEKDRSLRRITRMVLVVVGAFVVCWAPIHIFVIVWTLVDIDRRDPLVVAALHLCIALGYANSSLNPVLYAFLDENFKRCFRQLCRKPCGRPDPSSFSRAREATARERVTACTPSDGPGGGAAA
The experiment is described as follows: Receptor binding, [3H]diprenorphine displacement, delta opioid receptor. As to conditions: read-out: DOR Ki.

T2 sequence (P35372 whole entry): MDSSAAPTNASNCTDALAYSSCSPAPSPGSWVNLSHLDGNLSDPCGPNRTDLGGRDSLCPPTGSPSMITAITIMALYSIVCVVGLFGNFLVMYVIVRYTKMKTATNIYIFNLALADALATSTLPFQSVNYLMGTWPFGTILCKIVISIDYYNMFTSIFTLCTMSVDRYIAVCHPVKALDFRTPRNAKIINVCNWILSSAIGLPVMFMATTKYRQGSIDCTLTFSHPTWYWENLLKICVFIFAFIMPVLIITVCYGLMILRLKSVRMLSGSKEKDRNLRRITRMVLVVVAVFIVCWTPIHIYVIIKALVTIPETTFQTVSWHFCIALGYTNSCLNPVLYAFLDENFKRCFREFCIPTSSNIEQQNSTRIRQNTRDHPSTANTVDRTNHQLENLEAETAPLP
T1 sequence (P41145 whole entry): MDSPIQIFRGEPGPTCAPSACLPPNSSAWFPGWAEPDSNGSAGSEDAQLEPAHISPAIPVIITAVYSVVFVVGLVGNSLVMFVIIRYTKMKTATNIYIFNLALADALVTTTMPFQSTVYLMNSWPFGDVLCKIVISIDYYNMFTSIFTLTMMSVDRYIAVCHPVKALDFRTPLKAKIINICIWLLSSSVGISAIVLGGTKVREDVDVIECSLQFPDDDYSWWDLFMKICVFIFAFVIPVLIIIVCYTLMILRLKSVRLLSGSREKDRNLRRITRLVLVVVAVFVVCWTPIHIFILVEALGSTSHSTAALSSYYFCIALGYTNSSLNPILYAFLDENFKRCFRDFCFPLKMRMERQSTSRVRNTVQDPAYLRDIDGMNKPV

As to `C[C@H]1CN(C[C@H](Cc2ccccc2)C(=O)O)CC[C@@]1(C)c1cccc(C(=O)O)c1` [Example C-1, 3-[1-(2S-Carboxy-3-phenyl-propyl)-3R,4R-dimethyl-piperidin-4-yl]-benzoic acid, reference compound], the Ki in experiment [1] is above 10 µM; in experiment [2] it was 2290 nM; in experiment [4], above 10 µM. Besides, in experiment [3], the “inhibition of agonist-stimulated [35S]GTPγS binding relative to the other test compounds” value is “significantly reduced inhibition”.

For orientation: Ki means a measure of affinity in units of concentration, obtained from inhibition or displacement.
